Source: patent publication US12133915B2, “Method of treating epilepsy” (ALEXZA PHARMACEUTICALS, INC., priority 2016, dated 2024)

How the values were obtained:
[1] = Aerosol particle size distribution by Next Generation Pharmaceutical Impactor (NGI); format: physicochemical; details: condensation aerosol, FIG. 4
Excerpt: At least 80% by weight of the alprazolam aerosol particles have a size less than 5 microns, preferably at least 90% by weight of the alprazolam aerosol particles have a size less than 5 microns. At least 50% by weight of the alprazolam aerosol particles have a size less than 2 microns, preferably at least 50% by weight of the alprazolam aerosol particles have a size less than 1 micron. The Next Generation Pharmaceutical Impactor (NGI) was used to determine the particle size distribution.

[2] = system: patients with photosensitive epilepsy (IPS-induced photoparoxysmal EEG response); experiment: Intermittent photic stimulation (IPS) photosensitivity model, Phase 2a proof-of-concept study; format: in vivo, human
Experimental: Example 1 evaluated the ability of inhaled alprazolam to rapidly suppress photosensitivity in a double blind placebo-controlled crossover proof of concept study. This study was an in-clinic, randomized, placebo-controlled, double-blind design, 5-way crossover study design, which allowed for small patient size. Epilepsy patients were evaluated using an Intermittent Photic Stimulation model, allowing for screening for antiepileptic effects without triggering seizures or convulsive responses. Three doses of alprazolam were investigated along with placebo (twice) in 5 subjects.
In patients with photosensitive epilepsy, intermittent photic stimulation was used to elicit generalized epileptiform EEG activity. The subject is exposed to certain frequency of light stimulation (flash frequencies), and photosensitivity range measured. The model has been used to identify antiepileptic effects on a number of drugs.
The primary objectives of the study were to assess 1) the effects of inhaled alprazolam on the IPS-induced photoparoxysmal EEG response in patients with epilepsy, 2) the sedative properties of these doses in order to select maximally-effective dose with the least sedation for further clinical studies, and 3) overall safety. The primary endpoint was the change in the Standard Photosensitivity Range (SPR) in subjects receiving each dose of inhaled alprazolam.
(§1) Patients at least 18 years old with photosensitive epilepsy at 3 sites were tested on a baseline day, and then received in randomized order either inhaled placebo (on 2 days) or 0.5, 1 or 2 mg inhaled alprazolam delivered using a hand-held inhaled alprazolam device. Study days were separated by at least 1 week. Presence (and degree) of photosensitivity was measured predose, then at 2 min, 10 min, 30 min, 1, 2, 4 and 6 hours post-dose. Plasma concentration of study drug was measured at each time point. Sedation was assessed at each time point using the 100-mm linear visual analogue scale (VAS).
The test subjects were exposed to intermittent photic stimulation (14 frequencies, from 2 to 60 Hz), starting with lowest frequency and increasing frequency stepwise until a photosensitivity response was elicited. The test was repeated with the highest frequency and decreased frequency. The results can be summarized in a quantitative measure known as the Standardized Photosensitive Range (SPR). The Maximum SPR is 14. In the example shown, SPR is 8. The Primary endpoint is reduction in mean SPR, which is an indication of antiseizure activity. Patients that have a relatively stable SPR were enrolled in the study to allow for small study size.

[3] = system: patients with photosensitive epilepsy; experiment: Adverse events and tolerability, Phase 2a study; format: in vivo, human; details: for Cough, subjects with adverse event / Dizziness, subjects with adverse event / Dysgeusia, subjects with adverse event / Oral Dysaesthesia, subjects with adverse event / Sedation/somnolence, subjects with adverse event: N = 5
Excerpt: (§2) Secondary study endpoints included assessment of sedation using two visual analogue scales (VAS); correlation of plasma concentrations of inhaled alprazolam with PD effects on the SPR range; correlation of plasma concentrations of inhaled alprazolam with PD effects on sedation; and assessment of adverse events and changes in the neurological examination.
An assessment of adverse events and changes in the neurological examination were made. The safety profile was consistent with oral alprazolam.

[4] = Pharmacokinetic study in dogs, intravenous or inhalation administration; details: dog, in vivo
Excerpt: In a pharmacokinetic (PK) study in dogs, alprazolam PK was profiled following either intravenous or inhalation administration.

drug transporter = experiment: In vitro drug transporter inhibition potential; format: in vitro ADME; details: maximum alprazolam concentration tested
Excerpt: (§3) In vitro drug transporter and cytochrome P450 inhibition potential were also studied.

[5] = cited from earlier work
cytochrome P450 = experiment: In vitro cytochrome P450 inhibition potential; format: in vitro ADME; details: maximum alprazolam concentration tested
Excerpt: as §3

rat = experiment: Rat inhalation MTD study; format: in vivo
rats = experiment: 14-day inhalation toxicity study in rats; format: in vivo
Experimental: In the 14-day inhalation toxicity study in rats, the no-adverse-effect level was considered to be 10.3 mg/kg/day.

[6] = Plasma concentration of alprazolam in phase 1 and phase 2a clinical trials; format: in vivo, human
Experimental: as §1
FIGS. 5A and 5B show graphs of the mean plasma concentration of alprazolam in phase 1 and phase 2a clinical trials respectively. The graphs indicate a rapid uptake of alprazolam into the plasma after […] administration of the condensation aerosol. […] Mean peak plasma concentration occurred one to two minutes after administration of the alprazolam […] aerosol.

dogs [7] = experiment: 28-day GLP inhalation toxicity study with 14-day recovery in dogs; details: 28-day inhalation
dogs [8] = experiment: 5-day exploratory inhalation toxicity study in dogs; format: in vivo; details: 5-day inhalation
Experimental: In a 5-day exploratory inhalation toxicity study in dogs, the no-observed-adverse-effect level was 1.5 mg/kg/day for treatment-related histopathological findings.

dogs [9] = experiment: Cardiovascular and respiratory safety study in dogs, intravenous dosing; format: in vivo
Experimental: However, these changes were within normal ranges and not considered biologically significant. The plasma concentration of alprazolam associated with modest cardiovascular or respiratory effects exceeded 900 ng/mL and would not be expected to induce any significant changes at the range of doses planned considered for clinical studies (0.5 to 2.0 mg).

[10] = system: patients with photosensitive epilepsy; experiment: Sedation by visual analogue scale (VAS), Phase 2a study; format: in vivo, human
Experimental: as §1, §2
Assessment of the sedation using 2 visual analogue scales was made. […] A correlation of plasma concentrations of inhaled alprazolam with pharmacodynamic effects on sedation was made. […] Maximum sedation occurred within about two minutes of administration of alprazolam. Clinical observations support early onset of sedation at 30 seconds.

[11] = all treatment arms of the crossover (incl. placebo)

Cc1nnc2n1-c1ccc(Cl)cc1C(c1ccccc1)=NC2 [alprazolam, 8-chloro-1-methyl-6-phenyl-4H-[1,2,4]triazolo [4,3-α][1,4]-benzodiazepine]
mass median aerodynamic diameter (MMAD) of aerosol particles [1]: 1.2 to 1.8 microns | effect on photosensitivity ([2]; 1 mg and 2 mg doses): almost complete elimination of the photosensitivity | time reduction of SPR was maintained ([2]; after administration): at least six | change in mean standardized photosensitivity range (SPR) ([2]; all doses (0.5, 1, 2 mg inhaled)): decreased | time to maximal or near-maximal effect on SPR ([2]; all doses, post dose): ≤ 2 min | maximal decrease in SPR ([2]; at least at the earlier time points): approximately 5 steps | duration of effects on SPR ([2]; higher doses): 4 h | onset of SPR response ([2]; in vivo): less than two | time to suppression of epileptic activity / effects on EEG ([2]; patients with photosensitive epilepsy): ≤ 2 min | epileptiform activity in post-dose EEG traces ([2]; representative patient, FIG. 7B): complete abolishment of epileptiform activity | Cough, subjects with adverse event ([3]; 0.5 mg): 2 n | Dizziness, subjects with adverse event ([3]; 0.5 mg): 1 n | Dysgeusia, subjects with adverse event ([3]; 0.5 mg): 2 n | Oral Dysaesthesia, subjects with adverse event ([3]; 0.5 mg): 2 n | Sedation/somnolence, subjects with adverse event ([3]; 0.5 mg): 1 n | Cough, subjects with adverse event ([3]; 1 mg): 1 n | Dizziness, subjects with adverse event ([3]; 1 mg): 0 n | Dysgeusia, subjects with adverse event ([3]; 1 mg): 2 n | Oral Dysaesthesia, subjects with adverse event ([3]; 1 mg): 0 n | Sedation/somnolence, subjects with adverse event ([3]; 1 mg): 2 n | Cough, total number of subjects experiencing an event [3, 11]: 2 | Dizziness, total number of subjects experiencing an event [3, 11]: 1 | Dysgeusia, total number of subjects experiencing an event [3, 11]: 2 | Oral Dysaesthesia, total number of subjects experiencing an event [3, 11]: 2 | Sedation/somnolence, total number of subjects experiencing an event [3, 11]: 2 | serious adverse events ([3]; doses up to 2 mg, listed as inhaled alprazolam): no reported serious adverse events | tolerability of treatment ([3]; in vivo): well tolerated | Tmax ([4]; inhaled or intranasal, inhalation): < 1 min | bioavailability ([4]; inhaled, inhalation versus intravenous): 85 to 96% | drug transporter inhibition (drug transporter): No inhibition | solubility in chloroform ([5]; chloroform): freely soluble | solubility in ethanol ([5]; ethanol): soluble | solubility in methanol ([5]; methanol): soluble | solubility in water ([5]; water): practically insoluble | cytochrome P450 inhibition (cytochrome P450): No inhibition | single inhaled dose well tolerated (rat): up to 10.8 mg/kg | no-adverse-effect level (rats): 10.3 mg/kg/day | PK analysis, plasma concentrations versus dose ([6]; 0.5, 1, 2 mg): dose proportionality | time of mean peak plasma concentration ([6]; after administration of condensation aerosol): one to two | rapid rise in alprazolam plasma levels, time ([6]; inhaled): less than 2 min | deaths during the study (dogs [7]): no deaths | immunogenic potential (dogs [7]): no immunoglobulin or hypersensitivity response | no-observed-effect level for histopathological findings (dogs [7]; females): 4.4 mg/kg/day | no-observed-effect level for histopathological findings (dogs [7]; males): 2.8 mg/kg/day | no-observed-adverse-effect level for treatment-related histopathological findings (dogs [8]): 1.5 mg/kg/day | plasma concentration associated with modest cardiovascular or respiratory effects (dogs [9]; intravenous): exceeded 900 ng/mL | heart rate (dogs [9]; intravenous over 5 sec): transient increase | respiratory rate (dogs [9]; intravenous over 5 sec): transient decrease | sedation, relation to dose ([10]; 0.5, 1, 2 mg): dose related | time to maximum sedation (VAS) ([10]; after administration): two | early onset of sedation, clinical observations ([10]; in vivo): 30 s | onset of VAS (sedation) response ([10]; in vivo): less than two
